From patent US11673894B2, “Imidazopyrimidines and triazolopyrimidines as A2A / A2B inhibitors” (Incyte Corporation, priority 2018, dated 2023)

Experiments:
[1] = target: human adenosine A2B receptor (Homo sapiens (Human), UniProt P29275); assay: Adenosine A2B Receptor Cyclic AMP GS Assay; format: cell-based; details: HEK-293 cells expressing human A2B receptor; agonist NECA at 12 nM; cAMP accumulation (FRET); read-out: A2B_cAMP_EC50
Protocol: Stably transfected HEK-293 cells expressing the human adenosine A2B receptor (Perkin Elmer) were maintained in MEM culture medium with 10% FBS and 100 μg/ml Geneticin (Life Technologies). 18 to 24 hours prior to assay, geneticin was removed from culture. The cisbio cAMP-GS Dynamic kit utilizing the FRET (Fluorescence Resonance Energy Transfer) technology was used to measure cAMP accumulation in the cells. Compounds of the present disclosure at an appropriate concentration were mixed with 10000 cells/well in white 96 well half area plates (Perkin Elmer) for 30 min at RT gently shaking. Agonist, NECA (R&D Technologies) at 12 nM was added to each well for 60 min at RT gently shaking. Detection reagents, d2-labeled cAMP (acceptor) and anti-cAMP cryptate (donor) were added to each well for 60 min at RT gently shaking. Plates were read on Pherastar (BMG Labtech), fluorescence ratio 665/620 was calculated and EC50 determination was performed by fitting the curve of percent of control versus the log of the compound concentration using GraphPad Prism.

[2] = target: Adenosine A2A receptor (Homo sapiens (Human), UniProt P29274); assay: A2A Tag-lite HTRF Assay; details: Tag-lite Adenosine A2A labeled cells; A2A Receptor Red antagonist fluorescent ligand 12.5 nM; one-site competitive binding model; read-out: A2A_Ki
Excerpt: The final concentration of DMSO was 1%.

human adenosine A2B receptor, sequence (P29275 whole entry): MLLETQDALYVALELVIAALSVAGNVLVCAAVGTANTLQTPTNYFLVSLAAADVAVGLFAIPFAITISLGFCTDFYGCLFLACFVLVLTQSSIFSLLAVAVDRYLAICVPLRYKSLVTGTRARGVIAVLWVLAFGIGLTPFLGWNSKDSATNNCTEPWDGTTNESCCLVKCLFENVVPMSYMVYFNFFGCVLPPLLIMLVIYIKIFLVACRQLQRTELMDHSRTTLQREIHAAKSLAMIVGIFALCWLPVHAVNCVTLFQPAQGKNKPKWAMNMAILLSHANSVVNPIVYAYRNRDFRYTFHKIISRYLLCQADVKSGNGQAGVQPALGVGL
Adenosine A2A receptor, sequence (P29274 whole entry): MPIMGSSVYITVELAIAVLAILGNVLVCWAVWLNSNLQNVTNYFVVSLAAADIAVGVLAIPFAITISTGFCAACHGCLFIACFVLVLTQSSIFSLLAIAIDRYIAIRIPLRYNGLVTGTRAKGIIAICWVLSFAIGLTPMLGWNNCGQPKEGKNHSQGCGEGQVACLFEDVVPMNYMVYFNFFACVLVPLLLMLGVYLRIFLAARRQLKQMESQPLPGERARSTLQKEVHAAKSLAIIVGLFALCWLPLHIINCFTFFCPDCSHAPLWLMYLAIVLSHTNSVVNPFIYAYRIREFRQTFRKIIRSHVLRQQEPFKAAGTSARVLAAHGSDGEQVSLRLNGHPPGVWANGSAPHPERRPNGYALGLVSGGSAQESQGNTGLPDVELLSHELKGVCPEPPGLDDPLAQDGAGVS

EC50 [1] | Ki [2] | SMILES
10 to 100 nM | < 10 nM | N#Cc1cccc(-c2nc(N)n3nc(Cc4ccccn4)nc3c2-c2cccc3ncccc23)c1 [Example 44, 3-(5-Amino-2-(pyridin-2-ylmethyl)-8-(quinolin-5-yl)-[1,2,4]triazolo[1,5-c]pyrimidin-7-yl)benzonitrile]
< 10 nM | < 10 nM | N#Cc1cccc(-c2nc(N)n3nc(C(O)c4ccccc4)nc3c2-c2ncncc2F)c1 (centres unmarked) [Example 45, 3-(5-Amino-8-(5-fluoropyrimidin-4-yl)-2-(hydroxy(phenyl)methyl)-[1,2,4]triazolo[1,5-c]pyrimidin-7-yl)benzonitrile]
< 10 nM | < 10 nM | N#Cc1cccc(-c2nc(N)n3nc(Cc4ccccn4)nc3c2-c2ncncc2F)c1 [Example 46, 3-(5-Amino-8-(5-fluoropyrimidin-4-yl)-2-(pyridin-2-ylmethyl)-[1,2,4]triazolo[1,5-c]pyrimidin-7-yl)benzonitrile]
< 10 nM | < 10 nM | N#Cc1cccc(-c2nc(N)n3nc(C(NCCO)c4ccccc4)nc3c2-c2ccncc2)c1 (centres unmarked) [Example 47, 3-(5-Amino-2-((2-hydroxyethylamino)(phenyl)methyl)-8-(pyridin-4-yl)-[1,2,4]triazolo[1,5-c]pyrimidin-7-yl)benzonitrile]
10 to 100 nM | < 10 nM | CCn1nccc1-c1c(-c2cccc(C#N)c2)nc(N)n2nc(CC3CCCCC3)nc12 [Example 48, 3-(5-Amino-2-(cyclohexylmethyl)-8-(1-ethyl-1H-pyrazol-5-yl)-[1,2,4]triazolo[1,5-c]pyrimidin-7-yl)benzonitrile]
< 10 nM | < 10 nM | N#Cc1cccc(-c2nc(N)n3nc(Cc4ccccc4F)nc3c2-c2ccncn2)c1 [Example 49, 3-(5-Amino-2-(2-fluorobenzyl)-8-(pyrimidin-4-yl)-[1,2,4]triazolo[1,5-c]pyrimidin-7-yl)benzonitrile]
< 10 nM | < 10 nM | N#Cc1cccc(-c2nc(N)n3nc(C(O)c4ccccc4F)nc3c2-c2ccncn2)c1 (centres unmarked) [Example 50, 3-(5-Amino-2-((2-fluorophenyl)(hydroxy)methyl)-8-(pyrimidin-4-yl)-[1,2,4]triazolo[1,5-c]pyrimidin-7-yl)benzonitrile]
10 to 100 nM | < 10 nM | Cc1cccc(Cc2nc3c(-c4ccncn4)c(-c4cccc(C#N)c4)nc(N)n3n2)n1 [Example 51, 3-(5-Amino-2-((6-methylpyridin-2-yl)methyl)-8-(pyrimidin-4-yl)-[1,2,4]triazolo[1,5-c]pyrimidin-7-yl)benzonitrile]
< 10 nM | < 10 nM | CCn1nccc1-c1c(-c2cccc(C#N)c2)nc(N)n2nc(Cc3ncccc3F)nc12 [Example 52, 3-(5-Amino-8-(1-ethyl-1H-pyrazol-5-yl)-2-((3-fluoropyridin-2-yl)methyl)-[1,2,4]triazolo[1,5-c]pyrimidin-7-yl)benzonitrile]
10 to 100 nM | < 10 nM | CCn1nccc1-c1c(-c2cccc(C#N)c2)nc(N)n2nc(Cc3ncccc3OC)nc12 [Example 53, 3-(5-Amino-8-(1-ethyl-1H-pyrazol-5-yl)-2-((3-methoxypyridin-2-yl)methyl)-[1,2,4]triazolo[1,5-c]pyrimidin-7-yl)benzonitrile]
< 10 nM | < 10 nM | Cn1cc(-c2ccccc2Cc2nc3c(-c4ccncn4)c(-c4cccc(C#N)c4)nc(N)n3n2)cn1 [Example 54, 3-(5-Amino-2-(2-(1-methyl-1H-pyrazol-4-yl)benzyl)-8-(pyrimidin-4-yl)-[1,2,4]triazolo[1,5-c]pyrimidin-7-yl)benzonitrile]
< 10 nM | < 10 nM | CCn1nccc1-c1c(-c2cccc(C#N)c2)nc(N)n2nc(Cc3noc4ccccc34)nc12 [Example 55, 3-(5-Amino-2-(benzo[d]isoxazol-3-ylmethyl)-8-(1-ethyl-1H-pyrazol-5-yl)-[1,2,4]triazolo[1,5-c]pyrimidin-7-yl)benzonitrile]
10 to 100 nM | < 10 nM | CCn1nccc1-c1c(-c2cccc(C#N)c2)nc(N)n2nc(Cc3nn(C)c4ccccc34)nc12 [Example 56, 3-(5-Amino-8-(1-ethyl-1H-pyrazol-5-yl)-2-((1-methyl-1H-indazol-3-yl)methyl)-[1,2,4]triazolo[1,5-c]pyrimidin-7-yl)benzonitrile]
100 to 1000 nM | < 10 nM | N#Cc1cccc(-c2nc(N)n3nc(CN4CC(O)C4)nc3c2-c2ccncn2)c1 [Example 57, 3-(5-Amino-2-((3-hydroxyazetidin-1-yl)methyl)-8-(pyrimidin-4-yl)-[1,2,4]triazolo[1,5-c]pyrimidin-7-yl)benzonitrile]
< 10 nM | < 10 nM | Cc1cnccc1-c1c(-c2cccc(C#N)c2)nc(N)n2nc(Cc3ccccn3)nc12 [Example 58, 3-(5-Amino-8-(3-methylpyridin-4-yl)-2-(pyridin-2-ylmethyl)-[1,2,4]triazolo[1,5-c]pyrimidin-7-yl)benzonitrile]
10 to 100 nM | < 10 nM | COc1cc(-c2c(-c3cccc(C#N)c3)nc(N)n3nc(Cc4ccccn4)nc23)cc(C)n1 [Example 59, 3-(5-Amino-8-(2-methoxy-6-methylpyridin-4-yl)-2-(pyridin-2-ylmethyl)-[1,2,4]triazolo[1,5-c]pyrimidin-7-yl)benzonitrile]
10 to 100 nM | < 10 nM | N#Cc1cccc(-c2nc(N)n3nc(Cc4ccccn4)nc3c2-c2cnn3ncccc23)c1 [Example 60, 3-(5-Amino-8-(pyrazolo[1,5-b]pyridazin-3-yl)-2-(pyridin-2-ylmethyl)-[1,2,4]triazolo[1,5-c]pyrimidin-7-yl)benzonitrile]
< 10 nM | < 10 nM | Cc1ncoc1-c1c(-c2cccc(C#N)c2)nc(N)n2nc(Cc3ccccn3)nc12 [Example 61, 3-(5-Amino-8-(4-methyloxazol-5-yl)-2-(pyridin-2-ylmethyl)-[1,2,4]triazolo[1,5-c]pyrimidin-7-yl)benzonitrile]
< 10 nM | < 10 nM | Cc1nc(CO)c(-c2c(-c3cccc(C#N)c3)nc(N)n3nc(Cc4ccccn4)nc23)o1 [Example 62, 3-(5-Amino-8-(4-(hydroxymethyl)-2-methyloxazol-5-yl)-2-(pyridin-2-ylmethyl)-[1,2,4]triazolo[1,5-c]pyrimidin-7-yl)benzonitrile]
< 10 nM | < 10 nM | COCc1nc(C)oc1-c1c(-c2cccc(C#N)c2)nc(N)n2nc(Cc3ccccn3)nc12 [Example 63, 3-(5-Amino-8-(4-(methoxymethyl)-2-methyloxazol-5-yl)-2-(pyridin-2-ylmethyl)-[1,2,4]triazolo[1,5-c]pyrimidin-7-yl)benzonitrile]
< 10 nM | < 10 nM | N#Cc1cccc(-c2nc(N)n3nc([C@@H](O)c4ccccc4)nc3c2-c2ccncn2)c1 [Example 64, (S)-3-(5-amino-2-(hydroxy(phenyl)methyl)-8-(pyrimidin-4-yl)-[1,2,4]triazolo[1,5-c]pyrimidin-7-yl)benzonitrile]
< 10 nM | < 10 nM | N#Cc1cccc(-c2nc(N)n3nc([C@H](O)c4ccccc4)nc3c2-c2ccncn2)c1 [Example 65, (R)-3-(5-amino-2-(hydroxy(phenyl)methyl)-8-(pyrimidin-4-yl)-[1,2,4]triazolo[1,5-c]pyrimidin-7-yl)benzonitrile]
